The target in assay [1] is T1, Aldo-keto reductase family 1 member B10 (Homo sapiens, UniProt O60218). The experiment in a line: Inhibition of recombinant human N-terminal His6-tagged AKR1B10 expressed in Escherichia coli BL21 cells using all-trans-retinal as substrate at 20 uM incubated for 15 mins by HPLC method.
Target sequence in this assay (O60218 whole entry, looked up): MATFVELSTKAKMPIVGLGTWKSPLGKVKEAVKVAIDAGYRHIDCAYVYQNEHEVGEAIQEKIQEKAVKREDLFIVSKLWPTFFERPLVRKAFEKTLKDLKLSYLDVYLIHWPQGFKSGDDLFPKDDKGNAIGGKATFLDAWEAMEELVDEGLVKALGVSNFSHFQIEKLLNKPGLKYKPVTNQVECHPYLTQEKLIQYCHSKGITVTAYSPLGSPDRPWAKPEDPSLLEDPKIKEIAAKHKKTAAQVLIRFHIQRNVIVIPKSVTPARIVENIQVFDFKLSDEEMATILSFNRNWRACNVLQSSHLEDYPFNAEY
For assay [2], the target named is T1, Aldo-keto reductase family 1 member B10. The experiment in a line: Inhibition of recombinant human AKR1B10 expressed in human HCT116 cells assessed as reduction in daunorubicinol production using daunorubicin as substrate at 20 uM incubated for 4 to 8 hrs by UHPLC based transient transfection assay. It counts as cell-based. The following applies: HCT-116.
Target sequence in this assay (O60218 whole entry, looked up): as above
Assay [3] shares this target. The experiment in a line: Inhibition of recombinant human AKR1B10 expressed in human HCT116 cells assessed as reduction in daunorubicinol production using daunorubicin as substrate at 10 uM incubated for 4 to 8 hrs by UHPLC based transient transfection assay. The class given is cell-based. The conditions noted are these: HCT-116.
Target sequence in this assay (O60218 whole entry, looked up): as above
The target is the same in assay [4]. The assay is described as follows: Inhibition of recombinant human N-terminal His6-tagged AKR1B10 expressed in Escherichia coli BL21 cells using all-trans-retinal as substrate incubated for 15 mins by HPLC method.
Target sequence in this assay (O60218 whole entry): as the sequence (O60218 whole entry, looked up) above
Assay [5] shares this target. The assay is described as follows: Potency index, ratio of IC50 for flufenamic acid to IC50 for text compound for inhibition of recombinant human N-terminal His6-tagged AKR1B10 expressed in Escherichia coli BL21 cells using all-trans-retinal as substrate incubated for 15 mins by HPLC method.
Target sequence in this assay (O60218 whole entry, looked up): as above
Assay [6] has the same target. The assay is described as follows: Inhibition of recombinant human N-terminal His6-tagged AKR1B10 expressed in Escherichia coli BL21 cells using daunorubicin as substrate incubated for 20 mins by UHPLC method.
Target sequence in this assay (O60218 whole entry): as the sequence (O60218 whole entry, looked up) above
Assay [7] concerns the target Aldo-keto reductase family 1 member B1 (Homo sapiens, UniProt P15121). The assay is described as follows: Inhibition of recombinant N-terminal His6-tagged AKR1B1 (unknown origin) expressed in Escherichia coli BL21 cells using all-trans-retinal as substrate incubated for 15 mins by HPLC method.
Assay [8] is described as follows: Cytotoxicity against human HCT116 cells assessed as cell viability after 72 hrs by MTT assay. It counts as cell-based. The conditions noted are these: HCT-116, 72 h. In general terms: Tetrazolium dyes change colour on reduction, which living cells bring about.
In assay [9] the target is T1, Aldo-keto reductase family 1 member B10. The assay is described as follows: Non-competitive inhibition of recombinant human N-terminal His6-tagged AKR1B10 expressed in Escherichia coli BL21 cells using all-trans-retinal as substrate incubated for 15 mins by Lineweaver-Burk plot analysis.
Target sequence in this assay (O60218 whole entry): as the sequence (O60218 whole entry, looked up) above
Assay [10] has the same target. The experiment in a line: Inhibition of recombinant human AKR1B10 expressed in human HCT116 cells assessed as reduction in daunorubicinol production using daunorubicin as substrate incubated for 4 to 8 hrs by UHPLC based transient transfection assay. It counts as cell-based. The conditions noted are these: HCT-116.
Target sequence in this assay (O60218 whole entry, looked up): as above

The source made the active and inactive calls. The calls are words filed in the database; no cut-off is given here.

For orientation: inhibition means the share of the control response that was lost under treatment. As usually defined, the IC50 is the concentration at which inhibition is half-maximal. As usually defined, the EC50 is the concentration that produces a half-maximal response. The Ki is the dissociation constant of the complex between target and ligand, obtained from inhibition or displacement.

Take `COc1cc([C@H]2Oc3cc([C@H]4Oc5cc(O)c(O)cc5C(=O)[C@@H]4O)ccc3O[C@@H]2CO)ccc1O`: the inhibition result in [1] was “Active”.

For `COc1ccc([C@@H]2CC(=O)c3c(O)cc(O)cc3O2)cc1O`, in assay [1], the inhibition result is “Active”.

Regarding `C[C@@H]1O[C@@H](OC[C@H]2O[C@@H](Oc3c(-c4ccc(O)c(O)c4)oc4cc(O)cc(O)c4c3=O)[C@H](O)[C@@H](O)[C@@H]2O)[C@H](O)[C@H](O)[C@H]1O`, in assay [1], the inhibition result was “Active”.

Take `C[C@@H]1O[C@@H](Oc2c(-c3ccc(O)c(O)c3)oc3cc(O)cc(O)c3c2=O)[C@H](O)[C@H](O)[C@H]1O`: the inhibition entry in assay [1] is “Active”.

For `O=C(/C=C/c1ccc(O)c(O)c1)O[C@@H]1C[C@](O)(C(=O)O)C[C@@H](O)[C@H]1O`, the inhibition entry in assay [1] is “Active”.

In the case of `O=C(CCc1ccc(O)cc1)c1c(O)cc(O)cc1O[C@@H]1O[C@H](CO)[C@@H](O)[C@H](O)[C@H]1O`, the inhibition entry in assay [1] is “Active”.

On to `O=C(O)/C=C/c1ccc(O)c(O)c1`, for which, in assay [1], the inhibition entry was “Active”.

For the compound `O=C(O)c1ccc(O)cc1`, the inhibition entry in assay [1] is “Active”.

With `O=C(O[C@@H]1Cc2c(O)cc(O)cc2O[C@@H]1c1cc(O)c(O)c(O)c1)c1cc(O)c(O)c(O)c1`, the inhibition result in assay [1] was “Active”.

Turning to `O=C1CC(c2ccc(O)cc2)Oc2ccccc21` (stereo unspecified), the inhibition entry in [1] is “Active”.

For the compound `O=C1CC(c2ccccc2O)Oc2ccccc21` (stereo unspecified), the inhibition result in assay [1] was “Active”.

Turning to `O=C1C[C@@H](c2ccc(O)cc2)Oc2cc(O)cc(O)c21`, in assay [1], the inhibition result is “Active”.

`O=C1c2c(O)cc(O)cc2O[C@H](c2ccc(O)c(O)c2)[C@H]1O`: the inhibition result in assay [1] is “Active”.

`O=c1c(O)c(-c2ccc(O)c(O)c2)oc2cc(O)cc(O)c12`: the inhibition in [2] worked out at 23%; in [3] it was 18%. Further, in assay [1], the inhibition entry is “Active”.

For `O=c1c(O)c(-c2ccc(O)cc2O)oc2cc(O)cc(O)c12`, the inhibition entry in assay [1] was “Active”.

In the case of `O=c1c(O)c(-c2ccccc2)oc2ccccc12`, in assay [1], the inhibition result is “Active”.

`O=c1cc(-c2ccc(O)cc2)oc2c([C@@H]3O[C@H](CO)[C@@H](O)[C@H](O)[C@H]3O)c(O)cc(O)c12`: in assay [1], the inhibition result was “Active”.

Consider `O=c1cc(-c2ccccc2)oc2cccc(O)c12`, for which, in assay [1], the inhibition result is “Active”.

Consider `Oc1cc(O)c2c(c1)O[C@H](c1ccc(O)c(O)c1)[C@@H](O)C2`, for which the inhibition entry in assay [1] was “Active”.

Turning to `O=c1cc(-c2ccccc2)oc2cc(O)ccc12` [7-HYDROXYFLAVONE], the inhibition in assay [2] worked out at 19%. The IC50 in [4] worked out at 8.3 µM; in assay [6], 160 µM; in assay [7], 12.3 µM. Also, the inhibition entry in assay [1] is “Active”. Further, the Ratio IC50 in [5] was found to be 10. The EC50 in assay [8] is more than 50 µM.

As to `O=c1cc(-c2ccc(O)cc2)oc2cc(O)cc(O)c12` [APIGENIN], the inhibition came to 34% in assay [2] and 25% in assay [3]. Besides, the IC50 in assay [4] is 6.6 µM; in assay [6], 37.1 µM; in assay [7], 11.9 µM. In addition, the Ki in [9] was 6 µM. Also, in [1], the inhibition entry was “Active”. Moreover, the Ratio IC50 in assay [5] was 10. Also, in assay [8], the EC50 stood at 23.8 µM.

For the compound `COc1ccc(-c2coc3cc(O)cc(O)c3c2=O)cc1` [BIOCHANIN], the IC50 in assay [4] was 36.1 µM; in assay [7], 127 µM. In assay [1], the inhibition entry is “Active”.

On to `O=c1c(-c2ccc(O)cc2)coc2cc(O)ccc12` [DAIDZEIN], for which the IC50 in assay [4] is 32.2 µM; in assay [7] it was 162 µM. Further, the inhibition entry in assay [1] is “Active”.

Consider `O=C(O)c1ccccc1Nc1cccc(C(F)(F)F)c1` [FLUFENAMIC ACID], for which the inhibition result in [10] is “inactive”. The IC50 in [4] was determined as 96 µM. In assay [1], the inhibition entry was “Active”.

Consider `O=c1cc(-c2ccc(O)c(O)c2)oc2cc(O)cc(O)c12` [LUTEOLIN], for which the inhibition in assay [2] turned out to be 33%. Besides, the IC50 came out at 9.2 µM in assay [4] and 108 µM in assay [6]. Moreover, in assay [1], the inhibition result was “Active”. Also, the EC50 in assay [8] is 26.7 µM.

Values taken from ChEMBL document CHEMBL3739262, “Flavones Inhibit the Activity of AKR1B10, a Promising Therapeutic Target for Cancer Treatment” (J Nat Prod, 2015).
